Calls of active or inactive are those of the source. No cut-off for these calls is given here.
What was measured:
[1] = system: Rattus norvegicus; experiment: Neurotoxicity in Sprague-Dawley rat assessed as behavioral change at 30 mg/kg, po measured at […] post dose; assay type: toxicity, organism-based; details: in vivo
[2] = system: Mus musculus; experiment: Anticonvulsant activity in maximal electroshock induced seizure mouse model assessed as suppression in hindlimb tonic extension at 100 mg/kg, ip measured at 0.5 hrs post dose; assay type: functional, organism-based
[3] = system: Mus musculus; experiment: Anticonvulsant activity in maximal electroshock induced seizure mouse model assessed as suppression in hindlimb tonic extension at 300 mg/kg, ip measured at 0.5 hrs post dose; assay type: functional, organism-based
[4] = system: Mus musculus; experiment: Anticonvulsant activity in pentylenetetrazole induced seizure mouse model assessed as no observable episode of clonic convulsion of at least 5 secs at 300 mg/kg, ip measured at 0.5 hrs post dose; assay type: functional, organism-based
[5] = system: Mus musculus; experiment: Neurotoxicity in mouse assessed as induction of motor impairment at 30 mg/kg, ip measured at 0.5 hrs post dose by rotarod method; assay type: toxicity, organism-based; details: in vivo
[6] = system: Mus musculus; experiment: Neurotoxicity in mouse assessed as induction of motor impairment at 100 mg/kg, ip measured at 0.5 hrs post dose by rotarod method; assay type: toxicity, organism-based; details: in vivo
[7] = system: Mus musculus; experiment: Neurotoxicity in mouse assessed as induction of motor impairment at 300 mg/kg, ip measured at 0.5 hrs post dose by rotarod method; assay type: toxicity, organism-based; details: in vivo
[8] = system: Mus musculus; experiment: Neurotoxicity in mouse assessed as induction of motor impairment at 30 mg/kg, ip measured at 4 hrs post dose by rotarod method; assay type: toxicity, organism-based; details: in vivo
[9] = system: Mus musculus; experiment: Neurotoxicity in mouse assessed as induction of motor impairment at 100 mg/kg, ip measured at 4 hrs post dose by rotarod method; assay type: toxicity, organism-based; details: in vivo
[10] = system: Mus musculus; experiment: Neurotoxicity in mouse assessed as induction of motor impairment at 300 mg/kg, ip measured at 4 hrs post dose by rotarod method; assay type: toxicity, organism-based; details: in vivo
[11] = system: Rattus norvegicus; experiment: Neurotoxicity in Sprague-Dawley rat assessed as behavioral change at 30 mg/kg, po measured at 1 hr post dose; assay type: toxicity, organism-based; details: in vivo
[12] = system: Rattus norvegicus; experiment: Neurotoxicity in Sprague-Dawley rat assessed as behavioral change at 30 mg/kg, po measured at 0.5 hrs post dose; assay type: toxicity, organism-based; details: in vivo
[13] = system: Rattus norvegicus; experiment: Neurotoxicity in Sprague-Dawley rat assessed as behavioral change at 30 mg/kg, po measured at 2 hrs post dose; assay type: toxicity, organism-based; details: in vivo
[14] = system: Rattus norvegicus; experiment: Neurotoxicity in Sprague-Dawley rat assessed as behavioral change at 30 mg/kg, po measured at 4 hrs post dose; assay type: toxicity, organism-based; details: in vivo
[15] = system: Mus musculus; experiment: Anticonvulsant activity in maximal electroshock induced seizure mouse model assessed as suppression in hindlimb tonic extension at 30 mg/kg, ip measured at 0.5 hrs post dose; assay type: functional, organism-based
[16] = system: Mus musculus; experiment: Anticonvulsant activity in 6-Hz induced seizure mouse model assessed as restoration of normal activity within 10 secs from stimulation at 100 mg/kg, ip at 32 mA measured at […] post dose; assay type: functional, organism-based
[17] = system: Mus musculus; experiment: Anticonvulsant activity in 6-Hz induced seizure mouse model assessed as restoration of normal activity within 10 secs from stimulation at 100 mg/kg, ip at 32 mA measured at 0.5 hrs post dose; assay type: functional, organism-based
[18] = system: Rattus norvegicus; experiment: Neurotoxicity in Sprague-Dawley rat assessed as behavioral change at 30 mg/kg, ip measured at […] post dose; assay type: toxicity, organism-based; details: in vivo
[19] = system: Rattus norvegicus; experiment: Neurotoxicity in Sprague-Dawley rat assessed as behavioral change at 30 mg/kg, ip measured at 0.5 hrs post dose; assay type: toxicity, organism-based; details: in vivo
[20] = system: Rattus norvegicus; experiment: Neurotoxicity in Sprague-Dawley rat assessed as behavioral change at 30 mg/kg, ip measured at 1 hr post dose; assay type: toxicity, organism-based; details: in vivo
[21] = system: Rattus norvegicus; experiment: Neurotoxicity in Sprague-Dawley rat assessed as behavioral change at 30 mg/kg, ip measured at 2 hrs post dose; assay type: toxicity, organism-based; details: in vivo
[22] = system: Rattus norvegicus; experiment: Neurotoxicity in Sprague-Dawley rat assessed as behavioral change at 30 mg/kg, ip measured at 4 hrs post dose; assay type: toxicity, organism-based; details: in vivo
[23] = system: Rattus norvegicus; experiment: Anticonvulsant activity in maximal electroshock induced seizure Sprague-Dawley rat model assessed as suppression in hindlimb tonic extension at 30 mg/kg, ip measured at […] post dose; assay type: functional, organism-based
[24] = system: Mus musculus; experiment: Anticonvulsant activity in maximal electroshock induced seizure mouse model assessed as suppression in hindlimb tonic extension at 300 mg/kg, ip measured at 4 hrs post dose; assay type: functional, organism-based
[25] = system: Mus musculus; experiment: Anticonvulsant activity in pentylenetetrazole induced seizure mouse model assessed as no observable episode of clonic convulsion of at least 5 secs at 100 mg/kg, ip measured at 0.5 hrs post dose; assay type: functional, organism-based
[26] = system: Mus musculus; experiment: Anticonvulsant activity in pentylenetetrazole induced seizure mouse model assessed as no observable episode of clonic convulsion of at least 5 secs at 300 mg/kg, ip measured at 4 hrs post dose; assay type: functional, organism-based

| SMILES | Activity [1] | Activity [2] | Activity [3] | Activity [4] | Activity [5] | Activity [6] | Activity [7] | Activity [8] | Activity [9] | Activity [10] | Activity [11] | Activity [12] | Activity [13] | Activity [14] | further results |
| --- | --- | --- | --- | --- | --- | --- | --- | --- | --- | --- | --- | --- | --- | --- | --- |
| Cc1ccc(/C=C/C(=O)NC(C)CO)cc1 (stereo not given) | Non-Toxic | Active | Active | Active | Non-Toxic | Non-Toxic | Toxic | Non-Toxic | Non-Toxic | Non-Toxic | Non-Toxic | Non-Toxic | Non-Toxic | Non-Toxic | – |
| CC[C@@H](CO)NC(=O)/C=C/c1ccc(C)cc1 | – | – | Active | Active | Non-Toxic | Non-Toxic | Toxic | Non-Toxic | Non-Toxic | Non-Toxic | – | – | – | – | – |
| Cc1ccc(/C=C/C(=O)NCC(C)O)cc1 (stereo not given) | – | – | Active | Active | Non-Toxic | Non-Toxic | Toxic | Non-Toxic | Non-Toxic | Non-Toxic | – | – | – | – | – |
| CCC(O)CNC(=O)/C=C/c1ccccc1C (stereo not given) | Non-Toxic | Active | Active | Active | – | – | Toxic | Non-Toxic | Non-Toxic | Non-Toxic | Non-Toxic | Non-Toxic | Non-Toxic | Non-Toxic | Activity [15]: Active; Activity [16]: Active; Activity [17]: Active; Activity [18]: Non-Toxic; Activity [19]: Non-Toxic; Activity [20]: Non-Toxic; Activity [21]: Non-Toxic; Activity [22]: Non-Toxic; Activity [23]: Active |
| Cc1ccccc1/C=C/C(=O)NC(C)CO (stereo not given) | Non-Toxic | Active | Active | Active | Non-Toxic | – | Toxic | Non-Toxic | Non-Toxic | Non-Toxic | Non-Toxic | Non-Toxic | Non-Toxic | Non-Toxic | – |
| CCC(O)CNC(=O)/C=C/c1ccc(Cl)cc1 (stereo not given) | – | – | Active | Active | Non-Toxic | – | Toxic | Non-Toxic | Non-Toxic | Toxic | – | – | – | – | Activity [24]: Active; Activity [25]: Active; Activity [26]: Active |
| Cc1ccccc1/C=C/C(=O)NC1CCCCC1O (racemic) | – | – | Active | – | Non-Toxic | Non-Toxic | Non-Toxic | Non-Toxic | Non-Toxic | Non-Toxic | – | – | – | – | – |
| CC(C)(CO)NC(=O)/C=C/c1ccc(Cl)cc1 | Non-Toxic | – | Active | – | Non-Toxic | Non-Toxic | – | Non-Toxic | Non-Toxic | Non-Toxic | Non-Toxic | Non-Toxic | Non-Toxic | Non-Toxic | Activity [24]: Active; Activity [18]: Non-Toxic; Activity [19]: Non-Toxic; Activity [20]: Non-Toxic; Activity [21]: Non-Toxic; Activity [22]: Non-Toxic |
| Cc1ccc(/C=C/C(=O)NC2CCCCC2O)cc1 (racemic) | – | – | – | – | – | Non-Toxic | – | – | Non-Toxic | – | – | – | – | – | – |

— ChEMBL document CHEMBL3875185, “Structure-anticonvulsant activity studies in the group of (E)-N-cinnamoyl aminoalkanols derivatives monosubstituted in phenyl ring with 4-Cl, 4-CH3 or 2-CH3” (Bioorg Med Chem, 2017)
